For orientation: GI50 means the concentration at which growth is held to half of that of the control. In general, EC50 refers to the midpoint of the concentration-response curve.

The source made the active and inactive calls. The rule behind the calls is not given here.

A short description of assay [1]: Growth inhibition of human HBC4 cells after 48 hrs by Sulforhodamine B assay. Format: functional. Conditions: Homo sapiens, HBC4, 48 h; read-out: GI50. On the technique in general: Sulforhodamine B stains cellular protein and so reports cell mass.
Assay [2] can be described thus: Induction of golgi disassembly in human HBC4 cells assessed as presence of GBF1 in cytoplasm after 1 hr by immunofluorescence microscopy. It is filed as functional, cell-based.
Assay [3] can be described thus: Growth inhibition of human BSY1 cells after 48 hrs by Sulforhodamine B assay. It is filed as functional. As to conditions: BSY-1, 48 h, read-out: GI50.
In assay [4] the test system is HBC4. Description: Induction of golgi disassembly in human HBC4 cells assessed as presence of GBF1 in cytoplasm at 10 uM after 1 hr by immunofluorescence microscopy. It is filed as functional, cell-based.
For assay [5], the system named is BSY-1. Put plainly: Induction of golgi disassembly in human BSY1 cells assessed as presence of GBF1 in cytoplasm at 1 uM after 1 hr by immunofluorescence microscopy. Format: functional, cell-based.
Assay [6] is described as follows: Induction of golgi disassembly in human BSY1 cells assessed as presence of GBF1 in cytoplasm after 1 hr by immunofluorescence microscopy. It is filed as functional, cell-based. As to conditions: bsy-1.
In assay [7] the test system is BSY-1. Description: Induction of golgi disassembly in human BSY1 cells assessed as presence of GBF1 in cytoplasm at 1 to 100 nM after 1 hr by immunofluorescence microscopy. It is filed as functional, cell-based.
The test system of assay [8] is HBC4. Description: Induction of golgi disassembly in human HBC4 cells assessed as presence of GBF1 in cytoplasm at 1 to 100 nM after 1 hr by immunofluorescence microscopy. It is filed as functional, cell-based.

For `C[C@@H]1[C@@H](O)[C@H](C)C[C@@H]2C=C[C@H](C)[C@H](/C=C/C(=O)NCc3cccnc3)[C@@H]12`, the GI50 in assay [1] and in assay [3] was more than 10 µM throughout. For the same compound, the EC50 in assay [2] and in assay [6] was more than 10 µM in each case. For the same compound, the outcome in assay [4] and in assay [5] was inactive.

As to `C/C(=C\C=C\[C@@H]1[C@H]2[C@H](C)[C@@H](O)[C@H](C)C[C@@H]2C=C[C@@H]1C)C(=O)NCc1cccnc1` (stereo in doubt; form 2), the outcome in assay [7] and in assay [8] was Active.

For the origin of these results see ChEMBL document CHEMBL2311520, “Total synthesis of AMF-26, an antitumor agent for inhibition of the Golgi system, targeting ADP-ribosylation factor 1” (J Med Chem, 2013).
